Reference: the supplement of paper PMC12317010
Where a name gives a salt, the structure may show the parent alone.

Experiment: collision cross section in nitrogen (drift tube, single-field); higher = larger gas-phase ion size
[1] = ion type: [M+H], ion source: APCI, ion mode: Positive
[2] = ion type: [M+H], ion source: ESI, ion mode: Positive
[3] = ion type: [M-H], ion source: ESI, ion mode: Negative
[4] = ion type: [M+Na], ion source: ESI, ion mode: Positive
[5] = ion type: [M+], ion source: APCI, ion mode: Positive
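Further: chemical standards at 10 µM analysed by drift tube IMS-QTOF MS in about 3.95 torr nitrogen, mean of duplicate injections differing ≤1%, mass error below 10 ppm.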

SMILES | collision cross section in nitrogen [2] | collision cross section in nitrogen [3] | collision cross section in nitrogen [4] | further results
CCCN(CCC)c1c([N+](=O)[O-])cc(S(N)(=O)=O)cc1[N+](=O)[O-] [Oryzalin] | – | 177.3 Å² | – | –
CCC(CC)C(=O)O [2-Ethylbutyric acid] | – | 127.6 Å² | – | –
C#CCN1C(=O)COc2cc(F)c(N3C(=O)C4=C(CCCC4)C3=O)cc21 [Flumioxazin] | 183.7 Å² | 184.5 Å² | – | collision cross section in nitrogen [5]: 181 Å²
CCCC(=O)c1cc(O)c(O)cc1O [2',4',5'-Trihydroxybutyrophenone] | – | 141.3 Å² | – | –
CCCCCCCCCCCCCC[P+](CCCC)(CCCC)CCCC [Tributyltetradecylphosphonium chloride] | – | – | – | collision cross section in nitrogen (ion source: APCI, ion mode: Positive, ion type: [M]+ (permanent cation)): 224 Å²; collision cross section in nitrogen (ion source: ESI, ion mode: Positive, ion type: [M]+ (permanent cation)): 224.5 Å²
O=C(NS(=O)(=O)/C=C/c1ccccc1)c1ccc(F)cc1Cl | – | 177.6 Å² | 188.9 Å² | –
CN(C)C(=O)Nc1cccc(C(F)(F)F)c1 [Fluometuron] | 150.1 Å² | 146.2 Å² | 155 Å² | collision cross section in nitrogen [1]: 150.5 Å²
Nc1cccc(S(=O)(=O)c2cccc(N)c2)c1 [3,3'-Sulphonyldianiline] | – | – | 172.6 Å² | –
CCOC(=O)CCN(SN(C)C(=O)Oc1cccc2c1OC(C)(C)C2)C(C)C [Benfuracarb] | 197.3 Å² | – | 201.5 Å² | collision cross section in nitrogen [1]: 197.3 Å²
CC(C)(C)c1cc(Cc2cc(C(C)(C)C)c(O)c(C(C)(C)C)c2)cc(C(C)(C)C)c1O [4,4'-Methylenebis(2,6-di-t-butylphenol)] | – | 221.2 Å² | – | –
CC1=NN(c2ccc(C(=O)O)cc2)C(=O)C1 [4-(3-Methyl-5-oxo-4,5-dihydro-1H-pyrazol-1-yl)benzoic acid] | 151.6 Å² | 146.2 Å² | – | –
CCCCOC(=O)c1ccccc1C(=O)O [Monobutyl phthalate] | – | 151.7 Å² | – | –
Oc1cc(Cl)c(Cl)cc1Cl [2,4,5-Trichlorophenol] | – | 128.7 Å² | – | –
CC(C)(C)c1cccc(O)c1 [3-tert-Butylphenol] | – | 136.9 Å² | – | –
CC(C)c1ccccc1O [2-Isopropylphenol] | – | 129.3 Å² | – | –
COC(=O)c1cccnc1 [Methyl nicotinate] | – | – | – | collision cross section in nitrogen [1]: 126.6 Å²
Cc1cc(NC(=O)C(=O)O)cc(C)c1Oc1ccc(O)c2c1CCC2 | – | 199.1 Å² | – | –

SMILES | collision cross section in nitrogen [2] | collision cross section in nitrogen [3] | collision cross section in nitrogen [4] | further results
Clc1cccc(Cl)c1Cl [1,2,3-Trichlorobenzene] | – | – | 144.8 Å² | –
O=P(O)(O)c1ccccc1 [Phenylphosphonic acid] | – | 130.1 Å² | – | –
O=[N+]([O-])c1cc(C(F)(F)F)c(Cl)c([N+](=O)[O-])c1Nc1ncc(C(F)(F)F)cc1Cl [Fluazinam] | – | 182.2 Å² | – | –
COc1cc(C(C)(C)C)c(O)c(C(C)(C)C)c1 [2,6-Di-tert-butyl-4-methoxyphenol] | – | 160.4 Å² | – | collision cross section in nitrogen [5]: 157.2 Å²
NCCOS(=O)(=O)O [2-Aminoethyl hydrogen sulfate] | – | 121.6 Å² | – | –
CC(C)(C)c1n[nH]c(=S)n(N)c1=O | – | 142.1 Å² | – | –
O=C(O)C1=NN(c2ccc(S(=O)(=O)O)cc2)C(=O)C1 | – | 162.5 Å² | – | –
COc1ncc(F)c2nc(S(=O)(=O)Nc3c(F)cccc3F)nn12 [Florasulam] | 172.1 Å² | 174.5 Å² | 181.7 Å² | collision cross section in nitrogen [1]: 172.3 Å²
NS(=O)(=O)c1ccccc1Cl [2-Chlorobenzenesulfonamide] | – | 133.5 Å² | – | –
O=S(=O)(O)C(F)(F)C(F)(F)C(F)(F)C(F)(F)F [Perfluorobutanesulfonic acid] | – | 133.8 Å² | – | –
O=C1CCCN1C1CCCCC1 [1-Cyclohexylpyrrolidin-2-one] | 140.3 Å² | – | 157.7 Å² | collision cross section in nitrogen [1]: 139.2 Å²
Cc1ccc(Nc2ccc(Nc3ccc(C)cc3S(=O)(=O)O)c3c2C(=O)c2ccccc2C3=O)c(S(=O)(=O)O)c1 | 235.2 Å² | 227.8 Å² | – | –
COc1ccc(C(=O)c2ccccc2O)c(O)c1 [2,2′-Dihydroxy-4-methoxybenzophenone] | – | 153.6 Å² | – | –
CCN(CC)c1c([N+](=O)[O-])cc(C(F)(F)F)c(N)c1[N+](=O)[O-] [Dinitramine] | – | 159.7 Å² | – | –
CC(=O)Nc1ccccc1O [2-Hydroxyacetanilide] | – | 130.2 Å² | – | –
CC(=O)CC(=O)Nc1ccc(Cl)cc1 [4'-Chloroacetoacetanilide] | – | 143.8 Å² | – | –
CC(C)(O)c1ccc(CNC(=O)c2cccnc2Oc2ccc3nonc3c2)cc1 | – | 201 Å² | 191.5 Å² | collision cross section in nitrogen [1]: 196.9 Å²

More lines, main results first:

collision cross section in nitrogen [2] | collision cross section in nitrogen [3] | collision cross section in nitrogen [4] | SMILES | further results
154.8 Å² | 157.7 Å² | – | O=c1cc(-c2ccccc2)oc2cc(O)cc(O)c12 [Chrysin] | collision cross section in nitrogen [1]: 155.4 Å²
260.4 Å² | 235.7 Å² | 238.6 Å² | CCCCN1C(=O)[C@@H]([C@H](O)C2CCCCC2)NC(=O)C12CCN(Cc1ccc(Oc3ccc(C(=O)O)cc3)cc1)CC2 [Aplaviroc hydrochloride] | –
222.5 Å² | – | 219.1 Å² | CCCCCCCCCCOC(=O)c1ccccc1C(=O)OCCCCCCCC [Octyl decyl phthalate] | –
– | 127.7 Å² | – | Sc1nc2ccccc2s1 [Sodium 2-mercaptobenzothiolate] | –
– | 121.2 Å² | – | O=C(O)c1ccccc1O [Salicylic acid] | –
121.8 Å² | – | – | c1ccc2[nH]cnc2c1 [Benzimidazole] | collision cross section in nitrogen [1]: 121 Å²
– | – | 231.9 Å² | CCCCC(CC)COP(=O)(OCC(CC)CCCC)OCC(CC)CCCC (stereo not given) [Tris(2-ethylhexyl) phosphate] | –
– | 202.4 Å² | – | CCCCCCCCCCCCCCCC(=O)OC[C@H](O)[C@H]1OC(=O)C(O)=C1O [Ascorbyl palmitate] | –
143.9 Å² | – | – | Nc1ccc2cc3ccc(N)cc3nc2c1 [Proflavin hydrochloride] | collision cross section in nitrogen [1]: 143.4 Å²
– | – | 212.7 Å² | CC(=O)O[C@]1(C(C)=O)CC[C@H]2[C@@H]3C[C@H](C)C4=CC(=O)CC[C@]4(C)[C@H]3CC[C@@]21C [Medroxyprogesterone acetate] | –
193 Å² | 209.4 Å² | 211.3 Å² | CC1CN(c2cc3c(cc2F)c(=O)c(C(=O)O)cn3-c2ccc(F)cc2F)CCN1 (stereo not given) [Temafloxacin] | –
139.4 Å² | – | – | CC(C)Nc1nc(N)nc(Cl)n1 [Desethylatrazine] | collision cross section in nitrogen [1]: 139.3 Å²
– | 167.5 Å² | – | CC(Cc1ccc(O)c(O)c1)C(C)Cc1ccc(O)c(O)c1 (stereo not given) [Nordihydroguaiaretic acid] | –
167.4 Å² | – | – | CCCCCCOc1ccc(N)cc1 [4-Hexyloxyaniline] | collision cross section in nitrogen [1]: 168 Å²
– | 168.4 Å² | – | CC(C)(C)c1ccc(OC(=O)c2ccccc2O)cc1 [4-tert-Butylphenyl salicylate] | –
165.9 Å² | – | – | CCN(CC)c1ccc(N=Nc2ccccc2)cc1 [C.I. Solvent Yellow 56] | collision cross section in nitrogen [1]: 165.9 Å²
228.8 Å² | 249.7 Å² | 242.2 Å² | O=C(O)c1ccc2c(c1)nc(C(=O)NC1CCN(C3CC3)CC1)n2Cc1cc(-c2ccc(Cl)s2)on1 [AVE3247] | collision cross section in nitrogen [1]: 228.1 Å²
189.7 Å² | 190.7 Å² | 196.4 Å² | CCC[C@H](N[C@@H](C)C(=O)N1[C@H](C(=O)O)C[C@@H]2CCCC[C@@H]21)C(=O)OCC [Perindopril erbumine] | –
– | 128.1 Å² | – | COc1cc(C=O)ccc1O [4-Hydroxy-3-methoxybenzaldehyde] | –
– | 149 Å² | – | O=C(O)CCCCCCCCCC(=O)O [Undecanedioic acid] | –
– | 139 Å² | – | O=C(O)CCc1ccccc1 [Hydrocinnamic acid] | –
147.8 Å² | – | 161.1 Å² | CCn1cc(C(=O)O)c(=O)c2ccc(C)nc21 [Nalidixic acid] | collision cross section in nitrogen [1]: 147.5 Å²
– | – | 184.7 Å² | CC(C)C[C@H](NC(=O)OCC1c2ccccc2-c2ccccc21)C(=O)O [N-(9-Fluorenylmethoxycarbonyl)-L-leucine] | –
– | 133.3 Å² | – | S=c1[nH]c2cc(Cl)ccc2s1 [5-Chloro-1,3-benzothiazole-2(3H)-thione] | –
172.1 Å² | – | 164 Å² | COCCc1ccc(OCC(O)CNC(C)C)cc1 (stereo not given) [Metoprolol] | collision cross section in nitrogen [1]: 171.7 Å²
– | 196.2 Å² | 209.5 Å² | CCCCCOC(=O)COc1cc(N2C(=O)C3=C(CCCC3)C2=O)c(F)cc1Cl [Flumiclorac-pentyl] | –
142.3 Å² | – | – | CC1(C)CC(N)CC(C)(CN)C1 (stereo not given) [Isophorone diamine] | –
120.5 Å² | – | – | CN(C)c1ccncc1 [N,N-dimethylpyridin-4-amine] | collision cross section in nitrogen [1]: 120.6 Å²
– | – | 193.5 Å² | CCCCOC(=O)CCCCCCCCC(=O)OCCCC [Dibutyl decanedioate] | –
